According to US6670487B1, “Method for removing impurities from oxidation products” (General Electric Company, priority 2002, dated 2003):

How the values were obtained:
[1] = Solvent extraction of aqueous crude chlorophthalic acid solution: distribution coefficient K and selectivity beta of chlorophthalides; format: physicochemical; set-up: key to K values: K = chlorophthalide mass fraction organic phase / aqueous phase; key to beta values: beta = (phthalide/acid wt fraction, organic) ÷ (same ratio, water); conditions: 22 wt.% chlorophthalic acid, 60° C.
[2] = as above; format: physicochemical; set-up: key to K values: K = chlorophthalide mass fraction organic phase / aqueous phase; key to beta values: beta = (phthalide/acid wt fraction, organic) ÷ (same ratio, water)
Source text: In one embodiment the efficacy of a solvent extraction may be measured by the distribution coefficient, K, which is the mole fraction of specified solute in the organic solvent phase compared to the mole fraction of specified solute in the aqueous phase. In some particular embodiments an organic solvent is employed such that the value of the distribution coefficient, K, for phthalide in a product mixture comprising at least one phthalic acid is greater than 1. In other particular embodiments an organic solvent is employed such that the value of the distribution coefficient, K, for chlorophthalide in a product mixture comprising at least one chlorophthalic acid is greater than 1. In various particular embodiments an organic solvent is employed such that the value of the distribution coefficient, K, for chlorophthalide is in one embodiment in a range of between about 1.1 and about 5, and in another embodiment in a range of between about 1.1 and about 4. In a particular embodiment the distribution coefficient is measured for 4-chlorophthalide with water and various organic solvents such as toluene and xylene.
Another factor for measuring the efficacy of a solvent extraction is the selectivity factor, β, which compares the ratio of two components of interest in one phase to the ratio of the same two components in the other phase. In a particular embodiment the selectivity factor is measured for 4-chlorophthalide in relation to chlorophthalic acids in both water and organic solvent.
A 35 wt. % solution of crude chlorophthalic acid in water was prepared by adding appropriate amounts of 4- and 3-chlorophthalic anhydride (70/30 isomer ratio) along with a mixture of about 3 wt. % (based on crude chlorophthalic anhydride) of synthetic 4- and 7-chlorophthalide (produced by reduction of 3-chlorophthalic anhydride). […] A number of vials were prepared each containing 5 milliliters (ml.) of an aqueous phase comprising a certain concentration of crude chlorophthalic acid (5 wt. % to 35 wt. %, based on the weight of the entire aqueous phase and, optionally, acetic acid (0 wt. % to 36 wt. %, based on the weight of the entire aqueous phase). Each vial was then treated with 5 ml. of either toluene, o-dichlorobenzene (ODCB), or ortho-xylene. The vials were then shaken vigorously in a mechanical shaker for 50 minutes at a specified temperature (22° C., 42° C., or 60° C.). The phases were allowed to separate over several hours (actual phase separation occurred much quicker than this) and then each phase was sampled using a pipette. No stable emulsions were observed under the conditions which were examined. The organic phase was analyzed directly by GC (using biphenyl internal standard, following silylation of the product mixture), while for the aqueous phase, water was evaporated and solid residue was redissolved in organic solvent before GC analysis. The analytical data were used to calculate an equilibrium constant, K, which represented the ratio of chlorophthalides mass fraction in the organic phase to that in the aqueous phase. The analytical data were also used to calculate a selectivity constant, beta, which represented the quotient of [(wt. fraction of chlorophthalides in xylene)/(wt fraction of chlorophthalic acids in xylene)] divided by the quotient of [(wt fraction of chlorophthalides in water)/(wt fraction of chlorophthalic acids in water)]. The data in Table 1 show results of extractions performed at 22° C. with no acetic acid present.
The Procedure of Example 1 was repeated except that extractions were performed at 22 wt. % initial chlorophthalic acid concentration at 22° C. in the presence of different levels of acetic acid.
The procedure of Example 1 was repeated except that extractions were performed at different wt. % initial chlorophthalic acid concentration at 60° C. with no acetic acid present. […]

[3] = ODCB/water, 9 wt.% acetic acid in initial aqueous phase, 22 wt.% chlorophthalic acid, 22° C.
[4] = ODCB/water, 10 wt.% acetic acid in initial aqueous phase, 22 wt.% chlorophthalic acid, 60° C.
[5] = ODCB/water, 12 wt.% chlorophthalic acid in aqueous phase, 22° C., no acetic acid
[6] = ODCB/water, 17 wt.% acetic acid in initial aqueous phase, 22 wt.% chlorophthalic acid, 22° C.
[7] = ODCB/water, 19 wt.% acetic acid in initial aqueous phase, 22 wt.% chlorophthalic acid, 60° C.
[8] = ODCB/water, 22 wt.% chlorophthalic acid in aqueous phase, 60° C., no acetic acid
[9] = ODCB/water, 23 wt.% chlorophthalic acid in aqueous phase, 22° C., no acetic acid
[10] = ODCB/water, 26 wt.% acetic acid in initial aqueous phase, 22 wt.% chlorophthalic acid, 22° C.
[11] = ODCB/water, 35 wt.% acetic acid in initial aqueous phase, 22 wt.% chlorophthalic acid, 22° C.
[12] = ODCB/water, 35 wt.% chlorophthalic acid in aqueous phase, 22° C., no acetic acid
[13] = ODCB/water, 35 wt.% chlorophthalic acid in aqueous phase, 60° C., no acetic acid
[14] = toluene/water, 12 wt.% chlorophthalic acid in aqueous phase, 22° C., no acetic acid
[15] = toluene/water, 17 wt.% acetic acid in initial aqueous phase, 22 wt.% chlorophthalic acid, 22° C.
[16] = toluene/water, 22 wt.% chlorophthalic acid in aqueous phase, 60° C., no acetic acid
[17] = toluene/water, 23 wt.% chlorophthalic acid in aqueous phase, 22° C., no acetic acid
[18] = toluene/water, 26 wt.% acetic acid in initial aqueous phase, 22 wt.% chlorophthalic acid, 22° C.
[19] = toluene/water, 35 wt.% chlorophthalic acid in aqueous phase, 22° C., no acetic acid
[20] = toluene/water, 35 wt.% chlorophthalic acid in aqueous phase, 60° C., no acetic acid
[21] = toluene/water, 36 wt.% acetic acid in initial aqueous phase, 22 wt.% chlorophthalic acid, 22° C.
[22] = xylene/water, 12 wt.% chlorophthalic acid in aqueous phase, 22° C., no acetic acid
[23] = xylene/water, 23 wt.% chlorophthalic acid in aqueous phase, 22° C., no acetic acid
[24] = xylene/water, 35 wt.% chlorophthalic acid in aqueous phase, 22° C., no acetic acid

Substance: 4- and 7-chlorophthalide [chlorophthalides]
- beta values ([1]; ODCB/water, 29 wt.% acetic acid in initial aqueous phase): 150
- K values ([1]; ODCB/water, 37 wt.% acetic acid in initial aqueous phase): 1.7
- K values ([1]; toluene/water, 10 wt.% acetic acid in initial aqueous phase): 3.3
- beta values ([1]; toluene/water, 19 wt.% acetic acid in initial aqueous phase): 300
- beta values ([1]; toluene/water, 29 wt.% acetic acid in initial aqueous phase): 150
- K values ([1]; toluene/water, 38 wt.% acetic acid in initial aqueous phase): 1.6
- K values ([2]; ODCB/water, 5.5 wt.% chlorophthalic acid in aqueous phase, 22° C., no acetic acid): 1.1
- beta values ([2]; ODCB/water, 5.5 wt.% chlorophthalic acid in aqueous phase, 22° C., no acetic acid, chlorophthalides vs chlorophthalic acids): 400
- K values [2, 3]: 2.3
- beta values [2, 3]: 200
- K values [2, 4]: 3.1
- beta values [2, 4]: 600
- K values [2, 5]: 1.8
- beta values [2, 5]: 800
- K values [2, 6]: 2.2
- beta values [2, 6]: 200
- K values [2, 7]: 2.5
- beta values [2, 7]: 300
- K values [2, 8]: 2.8
- beta values [2, 8]: 800
- K values [2, 9]: 2.2
- beta values [2, 9]: 300
- K values [2, 10]: 1.9
- beta values [2, 10]: 100
- K values ([2]; ODCB/water, 29 wt.% acetic acid in initial aqueous phase, 22 wt.% chlorophthalic acid, 60° C.): 2.3
- K values [2, 11]: 1.7
- beta values [2, 11]: 100
- K values [2, 12]: 1.4
- beta values [2, 12]: 260
- K values [2, 13]: 1.7
- beta values [2, 13]: 800
- beta values ([2]; ODCB/water, 37 wt.% acetic acid in initial aqueous phase, 22 wt.% chlorophthalic acid, 60° C.): 100
- values for K ([2]; acetic acid 0-35 wt.% based on the weight of the water, 22 wt.% solids): 1.7-2.6
- selectivity numbers for chlorophthalic acids and chlorophthalide ([2]; o-dichlorobenzene, chlorophthalic acids about 20 wt.%, chlorophthalide about 0.6%): ~500
- selectivity numbers for chlorophthalic acids and chlorophthalide ([2]; toluene and xylene, chlorophthalic acids about 20 wt.%, chlorophthalide about 0.6%): 4000-5000
- values of K ([2]; toluene, xylene and o-dichlorobenzene, chlorophthalic acids about 20 wt.%, chlorophthalide about 0.6%): 1.5-2.5
- K values ([2]; toluene/water, 6 wt.% chlorophthalic acid in aqueous phase, 22° C., no acetic acid): 1.8
- beta values ([2]; toluene/water, 6 wt.% chlorophthalic acid in aqueous phase, 22° C., no acetic acid, chlorophthalides vs chlorophthalic acids): 800
- beta values ([2]; toluene/water, 10 wt.% acetic acid in initial aqueous phase, 22 wt.% chlorophthalic acid, 60° C.): 900
- K values [2, 14]: 2.6
- beta values [2, 14]: 2500
- K values [2, 15]: 2.5
- beta values [2, 15]: 400
- K values ([2]; toluene/water, 19 wt.% acetic acid in initial aqueous phase, 22 wt.% chlorophthalic acid, 60° C.): 2.9
- K values [2, 16]: 3.5
- beta values [2, 16]: 1800
- K values [2, 17]: 2.5
- beta values [2, 17]: 3900
- K values [2, 18]: 2.2
- beta values [2, 18]: 150
- K values ([2]; toluene/water, 29 wt.% acetic acid in initial aqueous phase, 22 wt.% chlorophthalic acid, 60° C.): 2.4
- K values [2, 19]: 1.7
- beta values [2, 19]: 3400
- K values [2, 20]: 2.0
- beta values [2, 20]: 1400
- K values [2, 21]: 1.9
- beta values [2, 21]: 100
- beta values ([2]; toluene/water, 38 wt.% acetic acid in initial aqueous phase, 22 wt.% chlorophthalic acid, 60° C.): 50
- selectivity numbers ([2]; toluene, 0 wt.% acetic acid, 22 wt.% solids): 4000
- selectivity numbers ([2]; toluene, 18 wt.% acetic acid, 22 wt.% solids): about 400
- K values [2, 22]: 2.5
- beta values [2, 22]: 3500
- K values [2, 23]: 1.8
- beta values [2, 23]: 4700
- K values [2, 24]: 1.3
- beta values [2, 24]: 4200
